Measurements reported in patent US12729377B2, “RNAi agents and compositions for inhibiting expression of angiopoietin-like 3 (ANGPTL3), and methods of use” (Arrowhead Pharmaceuticals, Inc., priority 2017, dated 2026).
In the oligonucleotide strings, read from the 5' end, every base follows the letter of its sugar. An asterisk marks phosphorothioate; unmarked linkages are phosphodiester. Other units and linkages are bracketed, terminal groups are in braces. A string of capitals states the bases alone. {NAG37} = tridentate N-acetyl-galactosamine targeting ligand, structure (NAG37)s; [invAb] = inverted abasic unit; m = 2'-O-methyl; f = 2'-fluoro

Key:
[1] = tested on: ANGPTL3 gene; assay: Example 8: serum total cholesterol in cynomolgus monkeys; format: in vivo, cynomolgus macaque (Macaca fascicularis); conditions: 3.0 mg/kg single SC injection day 1, cynos, n=2
Method: (§1) Additional ANGPTL3 RNAi agents were evaluated in cynomolgus monkeys. On day 1, cynomolgus macaque (Macaca fascicularis) primates (also referred to herein as “cynos”) were administered a single subcutaneous injection of 0.3 mL/kg (approximately 1-2 mL volume, depending on animal mass) containing 3.0 mg/kg of one of ANGPTL3 RNAi agent AD05577, AD05307, AD05488, AD05654, or AD05659, each formulated in saline.
(§2) Two (2) cynos in each group were tested (n=2). Blood samples were drawn and serum samples were analyzed on days −8 (pre-dose), 1 (pre-dose), 8, 15, 22, 29, and 36. Cynos were fasted overnight prior to each collection. ANGPTL3 protein levels in serum were measured by ELISA assay (R&D Systems), according to the manufacturer's recommendations. Triglycerides, total cholesterol, high-density lipoprotein (HDL), and low-density lipoprotein (LDL) in serum were measured on a Cobas® Integra 400 (Roche Diagnostics), according to the manufacturer's recommendations.
(§3) The ANGPTL3 protein levels, triglyceride levels, total cholesterol levels, HDL levels, and LDL levels for each animal were normalized. For normalization, the level of ANGPTL3 protein, triglyceride, HDL, and total cholesterol, respectively, for each animal at a time point, was divided by the average pre-treatment level of expression in that animal (in this case at days −8, and 1 (pre-dose)) to determine the ratio of expression “normalized to pre-treatment.”

[2] = tested on: ANGPTL3 gene; assay: Example 8: serum HDL in cynomolgus monkeys; format: in vivo, cynomolgus macaque (Macaca fascicularis); conditions: 3.0 mg/kg single SC injection day 1, cynos, n=2
Method: as §1, §2, §3

[3] = tested on: ANGPTL3 gene; assay: Example 8: serum triglycerides in cynomolgus monkeys; format: in vivo, cynomolgus macaque (Macaca fascicularis); conditions: 3.0 mg/kg single SC injection day 1, cynos, n=2
Method: as §1, §2, §3

[4] = tested on: ANGPTL3 protein; assay: Example 8: serum ANGPTL3 protein by ELISA in cynomolgus monkeys; format: in vivo, cynomolgus macaque (Macaca fascicularis); conditions: for Avg ANGPTL3 protein normalized to pre-treatment: 3.0 mg/kg single SC injection day 1, cynos, n=2
Method: as §1, §2, §3

[5] = tested on: ANGPTL3 gene; assay: Example 2: serum total cholesterol in mice; format: in vivo
Method: (§4) To assess the in vivo activity of ANGPTL3 RNAi agents that are designed to target different positions on the ANGPTL3 gene, six- to eight-week-old female C57bl/6 mice were used. Pre-dose serum samples were taken at day −1 after a four hour fast. At day 1, each mouse was given a single subcutaneous administration of 200 μl containing either 3 mg/kg (mpk) of an ANGPTL3 RNAi agent in D5W (dextrose in 5% water), or control (D5W) with no RNAi agent, according to the dosing groups recited in Table 7.
(§5) Each of the RNAi agents included a modified sequence and an N-acetyl-galactosamine-containing targeting ligand conjugated to the 5′ terminal end of the sense strand. (See Tables 3, 4, and 5 for modified sequences and targeting ligand structures). The injections were performed between the skin and muscle (i.e. subcutaneous injections) into the loose skin over the neck and shoulder area. Three (3) mice in each group were tested (n=3). Serum was collected on days 8, […], 22, 29, and day 36 (for Groups 1 and 5-11 only). Mice were fasted for four hours prior to each collection. ANGPTL3 protein levels in serum were measured by ELISA assay (R&D Systems), according to the manufacturer's recommendations. Triglycerides, high-density lipoprotein (HDL), and total cholesterol in serum were measured on a Cobas® Integra 400 (Roche Diagnostics), according to the manufacturer's recommendations.
(§6) The ANGPTL3 protein levels, triglyceride levels, HDL levels, and total cholesterol levels for each animal were normalized. For normalization, the level of ANGPTL3 protein, triglyceride, HDL, and total cholesterol, respectively, for each animal at a time point, was divided by the pre-treatment level of expression in that animal (in this case at day −1) to determine the ratio of expression “normalized to pre-treatment.” Expression at a specific time point was then normalized to the D5W control group by dividing the “normalized to pre-treatment” ratio for an individual animal by the mean “normalized to pretreatment” ratio of all mice in the D5W control group.

[6] = tested on: ANGPTL3 protein; assay: Example 2: serum ANGPTL3 protein by ELISA in mice; format: in vivo, C57bl/6 mice; conditions: for Avg ANGPTL3 (Average ANGPTL3 Protein Normalized to Pre-Treatment and Control): 3.0 mg/kg single subcutaneous dose on day 1, serum, female C57bl/6 mice
Method: as §4, §5, §6

[7] = tested on: ANGPTL3 gene; assay: Example 2: serum triglycerides in mice; format: in vivo
Method: as §4, §5, §6

[8] = tested on: ANGPTL3 gene; assay: Example 2: serum HDL in mice; format: in vivo
Method: as §4, §5, §6

[9] = Day 8, 3.0 mg/kg single subcutaneous dose on day 1, female C57bl/6 mice
[10] = Day 13, 3.0 mg/kg single subcutaneous dose on day 1, female C57bl/6 mice
[11] = Day 22, 3.0 mg/kg single subcutaneous dose on day 1, female C57bl/6 mice
[12] = Day 29, 3.0 mg/kg single subcutaneous dose on day 1, female C57bl/6 mice
[13] = Day 36, 3.0 mg/kg single subcutaneous dose on day 1, female C57bl/6 mice

## AD05307: RNAi agent duplex: antisense AM07001-AS, sense AM07000-SS (chain 1 mU*fU*mU*fGmAfAmUfUmAfAmUfGmUfCmCfAmUfGmGmG*mC; chain 2 {NAG37}*[invAb]*mGmCmCmCmAmUmGmGfAfCfAmUmUmAmAmUmUmCmAmAmA*[invAb])
[1]; Day 8
  Avg Total Chol normalized to pre-treatment: 0.994
[1]; Day 15
  Avg Total Chol normalized to pre-treatment: 1.006
[1]; Day 22
  Avg Total Chol normalized to pre-treatment: 0.905
[1]; Day 29
  Avg Total Chol normalized to pre-treatment: 0.954
[1]; Day 36
  Avg Total Chol normalized to pre-treatment: 0.909
[2]; Day 8
  Average HDL Normalized to Pre-Treatment: 1.007
[2]; Day 15
  Average HDL Normalized to Pre-Treatment: 0.946
[2]; Day 22
  Average HDL Normalized to Pre-Treatment: 0.879
[2]; Day 29
  Average HDL Normalized to Pre-Treatment: 0.998
[2]; Day 36
  Average HDL Normalized to Pre-Treatment: 0.863
[3]; Day 8
  Avg TG normalized to pre-treatment: 1.157
[3]; Day 15
  Avg TG normalized to pre-treatment: 1.058
[3]; Day 22
  Avg TG normalized to pre-treatment: 0.895
[3]; Day 29
  Avg TG normalized to pre-treatment: 0.969
[3]; Day 36
  Avg TG normalized to pre-treatment: 0.806
[4]; Day 8
  Avg ANGPTL3 protein normalized to pre-treatment: 0.486
[4]; Day 15
  Avg ANGPTL3 protein normalized to pre-treatment: 0.402
[4]; Day 22
  Avg ANGPTL3 protein normalized to pre-treatment: 0.726
[4]; Day 29
  Avg ANGPTL3 protein normalized to pre-treatment: 0.518
[4]; Day 36
  Avg ANGPTL3 protein normalized to pre-treatment: 0.392
[4]; all measured time points, single 3.0 mg/kg subcutaneous, cynomolgus monkeys
  reduction in ANGPTL3 protein compared to pre-treatment: reduction
[5]; [9]
  Avg Total Chol (Average Total Cholestrol Normalized to Pre-Treatment and Control): 0.649
[5]; [10]
  Avg Total Chol (Average Total Cholestrol Normalized to Pre-Treatment and Control): 0.570
[5]; [11]
  Avg Total Chol (Average Total Cholestrol Normalized to Pre-Treatment and Control): 0.628
[5]; [12]
  Avg Total Chol (Average Total Cholestrol Normalized to Pre-Treatment and Control): 0.753
[5]; [13]
  Avg Total Chol (Average Total Cholestrol Normalized to Pre-Treatment and Control): 0.755
[6]; Day 8
  Avg ANGPTL3 (Average ANGPTL3 Protein Normalized to Pre-Treatment and Control): 0.117
[6]; Day 13
  Avg ANGPTL3 (Average ANGPTL3 Protein Normalized to Pre-Treatment and Control): 0.120
[6]; Day 22
  Avg ANGPTL3 (Average ANGPTL3 Protein Normalized to Pre-Treatment and Control): 0.134
[6]; Day 29
  Avg ANGPTL3 (Average ANGPTL3 Protein Normalized to Pre-Treatment and Control): 0.206
[6]; Day 36
  Avg ANGPTL3 (Average ANGPTL3 Protein Normalized to Pre-Treatment and Control): 0.216
[6]; day 29, single 3 mg/kg subcutaneous, C57bl/6 mice
  ANGPTL3 protein normalized to pre-treatment and control: 0.206
[7]; [9]
  Avg TG (Average Triglycerides Normalized to Pre-Treatment and Control): 0.504
[7]; [10]
  Avg TG (Average Triglycerides Normalized to Pre-Treatment and Control): 0.655
[7]; [11]
  Avg TG (Average Triglycerides Normalized to Pre-Treatment and Control): 0.459
[7]; [12]
  Avg TG (Average Triglycerides Normalized to Pre-Treatment and Control): 0.629
[7]; [13]
  Avg TG (Average Triglycerides Normalized to Pre-Treatment and Control): 0.602
[8]; [9]
  Avg HDL (Average HDL Normalized to Pre-Treatment and Control): 0.633
[8]; [10]
  Avg HDL (Average HDL Normalized to Pre-Treatment and Control): 0.524
[8]; [11]
  Avg HDL (Average HDL Normalized to Pre-Treatment and Control): 0.588
[8]; [12]
  Avg HDL (Average HDL Normalized to Pre-Treatment and Control): 0.724
[8]; [13]
  Avg HDL (Average HDL Normalized to Pre-Treatment and Control): 0.702
